MIC data for three compounds are collected here from patent US5075289A, “9-R-azacyclic erythromycin antibiotics” (priority 1988, dated 1991).

Common to all, as to type: cell-based
Assay [1] deals with Staphylococcus aureus 45 RAR 2. Put plainly: microbe, parasite or virus in culture. The settings on record: 45RAR2. As for the experimental part: (§1) The antimicrobial spectra of a number of compounds of the invention were tested by the following method:
(§2) Twelve petri dishes containing successive aqueous dilutions of the test compound mixed with 10 ml of sterilized Brain Heart Infusion agar (Difco 0418-01-5) are prepared. Each plate is inoculated with 1:100 (or 1:10 for slow growing strains, primarily Micrococcus and Streptococcus) dilutions of up to 32 different microorganisms, using a Steers replicator block The inoculated plates are incubated at 35°-37° C. for 20-24 hours. In addition, a control plate, using BHI agar containing no test compound, is prepared and incubated at the beginning and end of each test.
(§3) An additional plate containing a compound having known susceptibility patterns for the organisms being tested and belonging to the same antibiotic class as the test compound is also prepared and incubated as a further control, as well as to provide test-to-test comparability. Erythromycin A was used for this purpose.
(§4) After incubation, each disk is read. The MIC is defined as the lowest concentration of drug yielding no growth, a slight haze, or sparsely isolated colonies on the inoculum spot as compared to the growth control.

In assay [2] the test system is Escherichia coli DC-2. Put plainly: In vitro antibacterial activity, agar dilution MIC. As for the experimental part:
as §1, §2, §3, §4
(In general: In agar dilution, organisms are placed on agar that contains the substance at set levels.)

The subject of assay [3] is Staphylococcus epidermidis 3519. As to the kind of experiment: In vitro antibacterial activity, agar dilution MIC. As for the experimental part:
as §1, §2, §3, §4

Assay [4] deals with Streptococcus pyogenes 930 CONST. As to the kind of experiment: In vitro antibacterial activity, agar dilution MIC. The settings on record: 930CONST. The procedure:
as §1, §2, §3, §4

Assay [5] has as its system Micrococcus luteus ATCC 4698. Put plainly: In vitro antibacterial activity, agar dilution MIC. As for the experimental part: as §1, §2, §3, §4
In assay [6] the test system is Escherichia coli Juhl. Put plainly: In vitro antibacterial activity, agar dilution MIC. The procedure:
as §1, §2, §3, §4

Assay [7] has as its system Escherichia coli SS. Put plainly: In vitro antibacterial activity, agar dilution MIC. The settings on record: read-out: MIC. As for the experimental part:
as §1, §2, §3, §4

The test system of assay [8] is Staphylococcus aureus A5177. Put plainly: In vitro antibacterial activity, agar dilution MIC. Particulars: S. aureus A5177, Brain Heart Infusion agar, 20-24 hours, read-out: MIC. The procedure:
as §1, §2, §3, §4

Assay [9] relates to Staphylococcus aureus NCTC 10649. Put plainly: In vitro antibacterial activity, agar dilution MIC. The procedure:
as §1, §2, §3, §4

For assay [10], the system named is Streptococcus pyogenes EES61. Put plainly: In vitro antibacterial activity, agar dilution MIC. Particulars: S. pyogenes EES61, Brain Heart Infusion agar, 20-24 hours, read-out: MIC. As for the experimental part: as §1, §2, §3, §4
In assay [11] the test system is Streptococcus agalactiae CMX 508. As to the kind of experiment: In vitro antibacterial activity, agar dilution MIC. The procedure: as §1, §2, §3, §4
Assay [12] relates to Staphylococcus aureus 642A. Put plainly: In vitro antibacterial activity, agar dilution MIC. The procedure: as §1, §2, §3, §4
Assay [13] deals with Streptococcus bovis A5169. Put plainly: In vitro antibacterial activity, agar dilution MIC. Particulars: read-out: MIC. The procedure: as §1, §2, §3, §4
In assay [14] the test system is Staphylococcus aureus CMX 553. As to the kind of experiment: In vitro antibacterial activity, agar dilution MIC. As for the experimental part:
as §1, §2, §3, §4

Assay [15] deals with Staphylococcus aureus ATCC 6538P. As to the kind of experiment: In vitro antibacterial activity, agar dilution MIC. The settings on record: ATCC6538P. The procedure: as §1, §2, §3, §4
Assay [16] has as its system Escherichia coli H560. Put plainly: In vitro antibacterial activity, agar dilution MIC. As for the experimental part: as §1, §2, §3, §4
Assay [17] relates to Enterococcus faecium ATCC 8043. As to the kind of experiment: In vitro antibacterial activity, agar dilution MIC. The procedure: as §1, §2, §3, §4
For assay [18], the system named is Staphylococcus aureus 45. As to the kind of experiment: In vitro antibacterial activity, agar dilution MIC. As for the experimental part: as §1, §2, §3, §4
Assay [19] relates to Micrococcus luteus ATCC 9341. Put plainly: In vitro antibacterial activity, agar dilution MIC. The procedure:
as §1, §2, §3, §4

In assay [20] the test system is Staphylococcus aureus CMX 503A. Put plainly: In vitro antibacterial activity, agar dilution MIC. The settings on record: CMX503A. As for the experimental part:
as §1, §2, §3, §4

The test system of assay [21] is Streptococcus pyogenes 2548 INDUC. As to the kind of experiment: In vitro antibacterial activity, agar dilution MIC. Particulars: S. pyogenes 2548 INDUC, Brain Heart Infusion agar, 20-24 hours, read-out: MIC. The procedure:
as §1, §2, §3, §4

The mark [22] stands for this setting: S. epidermidis 3519, Brain Heart Infusion agar, 20-24 hours, read-out: MIC.
Where [23] appears, read: NCTC10649, S. aureus NCTC 10649, Brain Heart Infusion agar, 20-24 hours, read-out: MIC.
Where [24] appears, read: CMX508, S. agalactiae CMX 508, Brain Heart Infusion agar, 20-24 hours, read-out: MIC.
The mark [25] stands for this setting: S. aureus 642A, Brain Heart Infusion agar, 20-24 hours, read-out: MIC.
Setting [26] is: CMX553, S. aureus CMX 553, Brain Heart Infusion agar, 20-24 hours, read-out: MIC.
Setting [27] is: ATCC9341, M. luteus ATCC 9341, Brain Heart Infusion agar, 20-24 hours, read-out: MIC.
Where [28] appears, read: ATCC4698, M. luteus ATCC 4698, Brain Heart Infusion agar, 20-24 hours, read-out: MIC.
The mark [29] stands for this setting: E. coli Juhl, Brain Heart Infusion agar, 20-24 hours, read-out: MIC.
Setting [30] is: E. coli SS, Brain Heart Infusion agar, 20-24 hours.
Where [31] appears, read: S. bovis A5169, Brain Heart Infusion agar, 20-24 hours.
The mark [32] stands for this setting: E. coli H560, Brain Heart Infusion agar, 20-24 hours, read-out: MIC.
Setting [33] is: ATCC8043, E. faecium ATCC 8043, Brain Heart Infusion agar, 20-24 hours, read-out: MIC.
The mark [34] stands for this setting: S. aureus 45, Brain Heart Infusion agar, 20-24 hours, read-out: MIC.

Values after ≈ are worked out from the molar mass of the structure shown. Where two headings read alike, the source gives them in different places.

As to `CC[C@H]1OC(=O)[C@H](C)[C@@H](O[C@H]2C[C@@](C)(OC)[C@@H](O)[C@H](C)O2)[C@H](C)[C@@H](O[C@@H]2O[C@H](C)C[C@H](N(C)C)[C@H]2O)[C@](C)(O)C[C@@H](C)[C@@H](N2CCCC(C)(C)C2)[C@H](C)[C@@H](O)[C@]1(C)O` [Example 1], the MIC was 0.78 µg/mL (≈ 0.938 µM) in [1]; 50 µg/mL (≈ 60.2 µM) in assay [2] (DC2); 0.78 µg/mL (≈ 0.938 µM) in assay [3] (setting [22]); more than 100 µg/mL in assay [4]; 0.1 µg/mL (≈ 0.12 µM) in [5] (ATCC4698); 25 µg/mL (≈ 30.1 µM) in assay [6]. Besides, the MIC came to 0.2 µg/mL (≈ 0.241 µM) in assay [7]; 6.2 µg/mL (≈ 7.46 µM) in assay [8]; 0.78 µg/mL (≈ 0.938 µM) in assay [9] (setting [23]); 0.1 µg/mL (≈ 0.12 µM) in assay [10]; 0.1 µg/mL (≈ 0.12 µM) in [11] (setting [24]); 0.78 µg/mL (≈ 0.938 µM) in [12] (setting [25]). Also, the MIC is 0.02 µg/mL (≈ 0.0241 µM) in [13]; 0.78 µg/mL (≈ 0.938 µM) in assay [14] (setting [26]); 0.39 µg/mL (≈ 0.469 µM) in assay [15]; 6.2 µg/mL (≈ 7.46 µM) in assay [16] (H560); 0.1 µg/mL (≈ 0.12 µM) in [17] (ATCC8043); 0.39 µg/mL (≈ 0.469 µM) in assay [18] (45). In addition, the MIC in assay [19] (setting [27]) came to 0.05 µg/mL (≈ 0.0602 µM).
As for `CC[C@H]1OC(=O)[C@H](C)[C@@H](O[C@H]2C[C@@](C)(OC)[C@@H](O)[C@H](C)O2)[C@H](C)[C@@H](O[C@@H]2O[C@H](C)C[C@H](N(C)C)[C@H]2O)[C@](C)(O)C[C@@H](C)[C@@H](N2CCCCCC2)[C@H](C)[C@@H](O)[C@]1(C)O` [Example 2], the MIC in assay [1] is 0.39 µg/mL (≈ 0.477 µM); in assay [2] (DC2) it was 12.5 µg/mL (≈ 15.3 µM); in [3] (3519), 0.39 µg/mL (≈ 0.477 µM); in assay [4] it was more than 100 µg/mL; in [20], 0.39 µg/mL (≈ 0.477 µM); in assay [5] (setting [28]), 0.1 µg/mL (≈ 0.122 µM). The MIC in assay [6] (setting [29]) is 0.1 µg/mL (≈ 0.122 µM); in assay [7] (setting [30]), 0.1 µg/mL (≈ 0.122 µM); in [8], 0.31 µg/mL (≈ 0.379 µM); in assay [9] (NCTC10649), 0.39 µg/mL (≈ 0.477 µM); in assay [10], 0.05 µg/mL (≈ 0.0612 µM); in [21], 12.5 µg/mL (≈ 15.3 µM). Besides, the MIC in assay [11] (setting [24]) was determined as 0.05 µg/mL (≈ 0.0612 µM); in [12] (642A) it was 0.39 µg/mL (≈ 0.477 µM); in assay [13] (setting [31]) it was 0.02 µg/mL (≈ 0.0245 µM); in assay [14] (CMX553), 0.39 µg/mL (≈ 0.477 µM); in assay [15], 0.39 µg/mL (≈ 0.477 µM); in assay [16] (setting [32]), 3.1 µg/mL (≈ 3.79 µM). Moreover, the MIC in assay [17] (setting [33]) stood at 0.02 µg/mL (≈ 0.0245 µM); in assay [18] (setting [34]) it was 0.2 µg/mL (≈ 0.245 µM); in assay [19] (setting [27]) it was 0.005 µg/mL (≈ 0.00612 µM).
For `CC[C@H]1OC(=O)[C@H](C)[C@@H](O[C@H]2C[C@@](C)(OC)[C@@H](O)[C@H](C)O2)[C@H](C)[C@@H](O[C@@H]2O[C@H](C)C[C@H](N(C)C)[C@H]2O)[C@](C)(O)C[C@@H](C)[C@@H](N2CCN(C(=O)c3ccccc3)CC2)[C@H](C)[C@@H](O)[C@]1(C)O` [Example 17], the MIC was 3.1 µg/mL (≈ 3.41 µM) in [1]; more than 100 µg/mL in [2] (DC2, E. coli DC-2, Brain Heart Infusion agar, 20-24 hours, read-out: MIC); 1.56 µg/mL (≈ 1.72 µM) in assay [3] (setting [22]); more than 100 µg/mL in assay [4]; 0.78 µg/mL (≈ 0.859 µM) in [5] (setting [28]); more than 100 µg/mL in [6] (setting [29]). Further, the MIC in [7] (setting [30]) is 3.1 µg/mL (≈ 3.41 µM); in assay [8], 12.5 µg/mL (≈ 13.8 µM); in assay [9] (setting [23]), 1.56 µg/mL (≈ 1.72 µM); in assay [10] it was 0.39 µg/mL (≈ 0.429 µM); in assay [21], 25 µg/mL (≈ 27.5 µM); in assay [11] (CMX508, read-out: MIC) it was 0.2 µg/mL (≈ 0.22 µM). Besides, the MIC in assay [12] (setting [25]) is 1.56 µg/mL (≈ 1.72 µM); in [13] (setting [31]), 0.39 µg/mL (≈ 0.429 µM); in [14] (setting [26]), 1.56 µg/mL (≈ 1.72 µM); in assay [15] (S. aureus ATCC 6538P, Brain Heart Infusion agar, 35-37° C., 20-24 hours, read-out: MIC), 1.56 µg/mL (≈ 1.72 µM); in [16] (setting [32]), more than 100 µg/mL; in assay [17] (setting [33]) it was 0.39 µg/mL (≈ 0.429 µM). Moreover, the MIC in assay [18] (setting [34]) turned out to be 0.78 µg/mL (≈ 0.859 µM); in assay [19] (ATCC9341, read-out: MIC), 0.2 µg/mL (≈ 0.22 µM).
